Results taken from ChEMBL document CHEMBL1151066, “Inhibitors of MMP-1: an examination of P1 C gem-disubstitution in the N-carboxyalkylamine and glutaramide carboxylate series” (Bioorg Med Chem Lett, 1996).

Target: T1, Interstitial collagenase (Homo sapiens, UniProt P03956)
T1 sequence (P03956 whole entry): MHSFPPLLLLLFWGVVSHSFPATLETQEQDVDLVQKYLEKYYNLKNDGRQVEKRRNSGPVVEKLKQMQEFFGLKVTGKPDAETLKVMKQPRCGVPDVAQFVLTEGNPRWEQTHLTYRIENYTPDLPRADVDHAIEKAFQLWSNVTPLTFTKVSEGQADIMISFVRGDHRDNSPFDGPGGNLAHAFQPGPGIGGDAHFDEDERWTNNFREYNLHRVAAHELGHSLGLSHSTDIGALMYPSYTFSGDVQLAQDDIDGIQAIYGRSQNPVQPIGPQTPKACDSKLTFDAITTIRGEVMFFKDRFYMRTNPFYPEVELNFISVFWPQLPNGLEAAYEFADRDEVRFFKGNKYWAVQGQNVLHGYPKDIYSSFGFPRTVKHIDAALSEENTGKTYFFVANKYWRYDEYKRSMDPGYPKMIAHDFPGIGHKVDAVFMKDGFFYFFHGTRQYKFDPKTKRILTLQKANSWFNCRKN
Test: Inhibitory activity against Matrix Metallo Proteinase-1 (MMP-1)

Point of comparison: CNC(=O)[C@H](Cc1ccccc1)NC(=O)[C@H](CC(C)C)N[C@H](CCN1C(=O)c2cc3ccccc3cc2C1=O)C(=O)O, IC50 34 nM. Against it:
- CNC(=O)[C@H](Cc1ccc(OC)cc1)NC(=O)[C@H](CC(C)C)C[C@@H](CCN1C(=O)c2cc3ccccc3cc2C1=O)C(=O)O — within 1.5-fold, 23 nM
- CNC(=O)[C@H](Cc1ccc(OC)cc1)NC(=O)[C@H](CC(C)C)N[C@H](CCN1C(=O)c2cc3ccccc3cc2C1=O)C(=O)O — within 1.5-fold, 23 nM
- CCCOc1ccc2c(c1)C(=O)N(CCC(CC1(C(=O)N[C@@H](Cc3ccc(OC)cc3)C(=O)NC)CCCCC1)C(=O)O)C2=O (mixture of isomers) — 4.1-fold higher, 140 nM
- CNC(=O)[C@H](Cc1ccc(OC)cc1)NC(=O)C1(CC(CCN2C(=O)c3ccc(OC)cc3C2=O)C(=O)O)CCCCC1 (mixture of isomers) — 17-fold higher, 570 nM
- CNC(=O)[C@H](Cc1ccc(OC)cc1)NC(=O)C1(CC(CCN2C(=O)c3ccccc3C2=O)C(=O)O)CCCCC1 (mixture of isomers) — 94-fold higher, 3200 nM
- CCC(CC1(C(=O)N[C@@H](Cc2ccc(OC)cc2)C(=O)NC)CCCCC1)C(=O)O (mixture of isomers) — higher, > 30000 nM
- O=C(O)C(CCN1C(=O)c2cc3ccccc3cc2C1=O)CC1(C(=O)NCCN2CCOCC2)CCCCC1 (racemic) — 350-fold higher, 12000 nM
- O=C(O)C(CCN1C(=O)c2cc3ccccc3cc2C1=O)CC1(C(=O)NCc2ccccc2)CCCCC1 (racemic) — 88-fold higher, 3000 nM
- CNC(=O)[C@H](Cc1ccc(OC)cc1)NC(=O)C1(NC(CCN2C(=O)c3cc4ccccc4cc3C2=O)C(=O)O)CCCCC1 (stereo in doubt; form 1) — 29-fold higher, 970 nM
- CNC(=O)[C@H](Cc1ccc(OC)cc1)NC(=O)C1(CC(CCN2C(=O)c3cc4ccccc4cc3C2=O)C(=O)O)CCCC1 (stereo in doubt; form 1) — 28-fold higher, 940 nM
- CNC(=O)[C@H](Cc1ccc(OC)cc1)NC(=O)C1(CC(CCN2C(=O)c3cc4ccccc4cc3C2=O)C(=O)O)CCCCC1 (stereo in doubt; form 1) — within 1.5-fold, 38 nM
- CNC(=O)[C@H](Cc1ccc(OC)cc1)NC(=O)C1(NC(CCN2C(=O)c3cc4ccccc4cc3C2=O)C(=O)O)CCCCC1 (stereo in doubt; form 2) — 2.6-fold higher, 90 nM
- CNC(=O)[C@H](Cc1ccc(OC)cc1)NC(=O)C1(CC(CCN2C(=O)c3cc4ccccc4cc3C2=O)C(=O)O)CCCC1 (stereo in doubt; form 2) — 7.6-fold higher, 260 nM
- CNC(=O)[C@H](Cc1ccc(OC)cc1)NC(=O)C1(CC(CCN2C(=O)c3cc4ccccc4cc3C2=O)C(=O)O)CCCCC1 (stereo in doubt; form 2) — 4.1-fold higher, 140 nM
